pIC50: −log10 of the molar value.
How the values were obtained:
human recombinant HDAC6 = molecular target: T1, human recombinant HDAC6 (Homo sapiens, UniProt Q9UBN7); assay: In vitro HDAC enzyme activity inhibition assay (HDAC6); type: biochemical; details: for HDAC6 selectivity (fold): HDAC6 over HDAC1; for pIC50: same protocol as the HDAC1 test, human recombinant HDAC6 (Calbiochem)
T1 construct: purchased Calbiochem Inc. 382180
T1 sequence (Q9UBN7 1-1215): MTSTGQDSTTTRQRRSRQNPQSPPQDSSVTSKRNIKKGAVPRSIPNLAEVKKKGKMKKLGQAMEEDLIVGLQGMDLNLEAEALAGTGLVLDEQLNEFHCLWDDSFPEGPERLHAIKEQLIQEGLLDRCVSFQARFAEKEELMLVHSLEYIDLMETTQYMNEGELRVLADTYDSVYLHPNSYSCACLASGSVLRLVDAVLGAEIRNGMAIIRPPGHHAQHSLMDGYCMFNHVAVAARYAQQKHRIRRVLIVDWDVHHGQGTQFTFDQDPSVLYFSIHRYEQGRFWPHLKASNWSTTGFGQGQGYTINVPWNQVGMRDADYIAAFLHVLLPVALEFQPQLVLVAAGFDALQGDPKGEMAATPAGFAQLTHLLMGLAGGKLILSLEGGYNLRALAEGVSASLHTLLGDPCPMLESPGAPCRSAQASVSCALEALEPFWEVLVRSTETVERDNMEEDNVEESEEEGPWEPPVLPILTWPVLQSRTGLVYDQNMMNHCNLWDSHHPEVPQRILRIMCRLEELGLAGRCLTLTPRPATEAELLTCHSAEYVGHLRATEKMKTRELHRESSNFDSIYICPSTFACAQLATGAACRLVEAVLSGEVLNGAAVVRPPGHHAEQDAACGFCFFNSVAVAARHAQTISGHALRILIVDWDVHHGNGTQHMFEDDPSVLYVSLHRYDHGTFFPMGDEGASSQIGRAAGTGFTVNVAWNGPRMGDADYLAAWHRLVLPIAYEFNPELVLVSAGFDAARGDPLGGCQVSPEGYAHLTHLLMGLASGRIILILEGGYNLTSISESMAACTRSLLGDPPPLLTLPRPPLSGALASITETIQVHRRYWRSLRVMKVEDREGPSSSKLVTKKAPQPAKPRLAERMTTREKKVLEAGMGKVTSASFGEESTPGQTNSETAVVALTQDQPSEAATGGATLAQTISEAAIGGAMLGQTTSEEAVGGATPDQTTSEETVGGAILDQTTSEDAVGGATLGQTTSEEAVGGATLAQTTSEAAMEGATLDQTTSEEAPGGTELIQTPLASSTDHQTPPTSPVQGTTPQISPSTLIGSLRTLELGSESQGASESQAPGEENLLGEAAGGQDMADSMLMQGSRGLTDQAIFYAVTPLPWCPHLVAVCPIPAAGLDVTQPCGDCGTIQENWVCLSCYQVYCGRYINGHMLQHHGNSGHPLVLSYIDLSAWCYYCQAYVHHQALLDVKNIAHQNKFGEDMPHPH
Method in brief: (§1)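 Fluorimetric deacetylase kit: human recombinant HDAC1 or HDAC6 (0.3 μg) with 10 μM Fluor de Lys-SIRT1 substrate and 5-fold diluted compounds, 60 min at 30° C. Developer added for 30 min, fluorescence read at Ex 360/Em 460, IC50 calculated.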

human recombinant HDAC1 = molecular target: T2, human recombinant HDAC1 (Homo sapiens, UniProt Q13547); assay: In vitro HDAC enzyme activity inhibition assay (HDAC1); type: biochemical; details: Fluor de Lys-SIRT1 substrate 10 μM, 30° C., 60 minutes, fluorescence
T2 construct: purchased Enzo Life Sciences, Inc. BML-SE456
Method in brief: as §1

T2 sequence (Q13547 whole entry): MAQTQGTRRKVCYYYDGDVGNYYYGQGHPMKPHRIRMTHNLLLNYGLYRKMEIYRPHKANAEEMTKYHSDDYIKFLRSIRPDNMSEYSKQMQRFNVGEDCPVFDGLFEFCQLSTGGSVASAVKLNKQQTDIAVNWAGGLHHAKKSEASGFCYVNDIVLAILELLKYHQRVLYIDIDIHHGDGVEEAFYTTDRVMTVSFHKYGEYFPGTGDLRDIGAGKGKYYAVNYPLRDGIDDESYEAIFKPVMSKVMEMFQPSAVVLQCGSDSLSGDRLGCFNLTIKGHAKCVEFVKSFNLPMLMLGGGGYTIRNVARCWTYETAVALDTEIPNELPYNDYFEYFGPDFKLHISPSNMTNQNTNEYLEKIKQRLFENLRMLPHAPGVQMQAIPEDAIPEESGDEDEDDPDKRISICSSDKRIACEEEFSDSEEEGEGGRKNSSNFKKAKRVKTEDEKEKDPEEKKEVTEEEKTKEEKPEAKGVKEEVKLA

HDAC6 selectivity (fold) (human recombinant HDAC6) | pIC50 (human recombinant HDAC6) | pIC50 (human recombinant HDAC1) | Compound
666 | 7.12 | < 4.30 | O=S(=O)(C1CCN(C2CC3(COC3)C2)CC1)N(Cc1cn2ccc(-c3nnc(C(F)F)o3)cc2n1)c1cccc(F)c1 [Compound 4617, N-((7-(5-(difluoromethyl)-1,3,4-oxadiazol-2-yl)imidazo[1,2-a]pyridin-2-yl)methyl)-N-(3-fluorophenyl)-1-(2-oxaspiro[3.3]heptan-6-yl)piperidine-4-sulfonamide]
524 | 7.02 | < 4.30 | O=C(CO)N1CCN(S(=O)(=O)N(Cc2cn3ccc(-c4nnc(C(F)F)o4)cc3n2)c2ccccc2)CC1 [Compound 4267, N-((7-(5-(difluoromethyl)-1,3,4-oxadiazol-2-yl)imidazo[1,2-a]pyridin-2-yl)methyl)-4-(2-hydroxyacetyl)-N-phenylpiperazine-1-sulfonamide]
674 | 7.13 | < 4.30 | CCN1CCN(S(=O)(=O)N(Cc2cn3ccc(-c4nnc(C(F)F)o4)cc3n2)c2ccccc2)CC1 [Compound 4257, N-((7-(5-(difluoromethyl)-1,3,4-oxadiazol-2-yl)imidazo[1,2-a]pyridin-2-yl)methyl)-4-ethyl-N-phenylpiperazine-1-sulfonamide]
354 | 6.85 | < 4.30 | O=C(N1CCC(S(=O)(=O)N(Cc2cn3ccc(-c4nnc(C(F)F)o4)cc3n2)c2ccccc2)CC1)C(F)(F)F [Compound 4224, N-((7-(5-(difluoromethyl)-1,3,4-oxadiazol-2-yl)imidazo[1,2-a]pyridin-2-yl)methyl)-N-phenyl-1-(2,2,2-trifluoroacetyl)piperidine-4-sulfonamide]
365 | 6.86 | < 4.30 | CCC(=O)N1CCN(S(=O)(=O)N(Cc2cn3ccc(-c4nnc(C(F)F)o4)cc3n2)c2cccc(F)c2)CC1 [Compound 4307, N-((7-(5-(difluoromethyl)-1,3,4-oxadiazol-2-yl)imidazo[1,2-a]pyridin-2-yl)methyl)-N-(3-fluorophenyl)-4-propionylpiperazine-1-sulfonamide]
595 | 7.08 | < 4.30 | CN1CC2(C1)CN(S(=O)(=O)N(Cc1cn3ccc(-c4nnc(C(F)F)o4)cc3n1)c1ccccc1)C2 [Compound 4624, N-((7-(5-(difluoromethyl)-1,3,4-oxadiazol-2-yl)imidazo[1,2-a]pyridin-2-yl)methyl)-6-methyl-N-phenyl-2,6-diazaspiro[3.3]heptan-2-sulfonamide]
486 | 6.99 | < 4.30 | O=S(=O)(C1CCN(c2ncccn2)CC1)N(Cc1cn2ccc(-c3nnc(C(F)F)o3)cc2n1)c1ccccc1 [Compound 4228, N-((7-(5-(difluoromethyl)-1,3,4-oxadiazol-2-yl)imidazo[1,2-a]pyridin-2-yl)methyl)-N-phenyl-1-(pyrimidin-2-yl)piperidine-4-sulfonamide]
274 | 6.74 | < 4.30 | O=S(=O)(N1CCN(C2CC3(CCC3)C2)CC1)N(Cc1cn2ccc(-c3nnc(C(F)F)o3)cc2n1)c1cccc(F)c1 [Compound 4622, N-((7-(5-(difluoromethyl)-1,3,4-oxadiazol-2-yl)imidazo[1,2-a]pyridin-2-yl)methyl)-N-(3-fluorophenyl)-4-(spiro[3.3]heptan-2-yl)piperazine-1-sulfonamide]
605 | 7.08 | < 4.30 | CC(CO)N1CCN(S(=O)(=O)N(Cc2cn3ccc(-c4nnc(C(F)F)o4)cc3n2)c2ccccc2)CC1 (stereo not drawn) [Compound 4259, N-((7-(5-(difluoromethyl)-1,3,4-oxadiazol-2-yl)imidazo[1,2-a]pyridin-2-yl)methyl)-4-(1-hydroxypropan-2-yl)-N-phenylpiperazine-1-sulfonamide]
806 | 7.21 | < 4.30 | O=S(=O)(N1CCN(C2CC3(COC3)C2)CC1)N(Cc1cn2ccc(-c3nnc(C(F)F)o3)cc2n1)c1cccc(F)c1 [Compound 4623, N-((7-(5-(difluoromethyl)-1,3,4-oxadiazol-2-yl)imidazo[1,2-a]pyridin-2-yl)methyl)-N-(3-fluorophenyl)-4-(2-oxaspiro[3.3]heptan-6-yl)piperazine-1-sulfonamide]
525 | 7.02 | < 4.30 | CS(=O)(=O)N1CCC(S(=O)(=O)N(Cc2cn3ccc(-c4nnc(C(F)F)o4)cc3n2)c2cccc(F)c2)CC1 [Compound 4251, N-((7-(5-(difluoromethyl)-1,3,4-oxadiazol-2-yl)imidazo[1,2-a]pyridin-2-yl)methyl)-N-(3-fluorophenyl)-1-(methylsulfonyl)piperidine-4-sulfonamide]
432 | 6.94 | < 4.30 | COC(=O)N1CCC(S(=O)(=O)N(Cc2cn3ccc(-c4nnc(C(F)F)o4)cc3n2)c2ccccc2)CC1 [Compound 4226, methyl 4-(N-((7-(5-(difluoromethyl)-1,3,4-oxadiazol-2-yl)imidazo[1,2-a]pyridin-2-yl)methyl)-N-phenylsulfamoyl)piperidine-1-carboxylate]
431 | 6.94 | < 4.30 | O=C(N1CCC(S(=O)(=O)N(Cc2cn3ccc(-c4nnc(C(F)F)o4)cc3n2)c2cccc(F)c2)CC1)C(F)(F)F [Compound 4250, N-((7-(5-(difluoromethyl)-1,3,4-oxadiazol-2-yl)imidazo[1,2-a]pyridin-2-yl)methyl)-N-(3-fluorophenyl)-1-(2,2,2-trifluoroacetyl)piperidine-4-sulfonamide]
